Measurements reported in PubChem BioAssay AID256 (DTP/NCI, 2004).
“And” between values parts separate entries of the source, which are not always exact repeats. Equal entries are not always repeated. Toxic doses and inconclusive results are not listed. How the source made its calls: active means survival T/C of 150% or more; inactive means T/C below 125% in these data.

System: CD2F1 mice, L1210 leukemia ip, survival T/C
Assay: NCI In Vivo Anticancer Drug Screen. Data for tumor model L1210 Leukemia (intraperitoneal) in CD2F1 (CDF1) mice
Details: higher = longer survival
In short: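 Compound-dosed mice with transplantable tumor versus matched vehicle controls; endpoint ratio T/C reported.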

[1] = endpoint: mean survival time, dose: 12.5 mg/kg/injection, schedule: Q01DX009 (ip), vehicle: saline with Tween-80
[2] = endpoint: mean survival time, dose: 25.0 mg/kg/injection, schedule: Q01DX009 (ip), vehicle: saline with Tween-80
[3] = endpoint: mean survival time, dose: 50.0 mg/kg/injection, schedule: Q01DX009 (ip), vehicle: saline with Tween-80
[4] = endpoint: mean survival time, dose: 100.0 mg/kg/injection, schedule: Q01DX009 (ip), vehicle: saline with Tween-80
[5] = endpoint: mean survival time, dose: 200.0 mg/kg/injection, schedule: Q01DX009 (ip), vehicle: saline with Tween-80
[6] = endpoint: mean survival time, dose: 50.0 mg/kg/injection, schedule: Q01DX001 (ip), vehicle: saline with Tween-80
[7] = endpoint: mean survival time, dose: 100.0 mg/kg/injection, schedule: Q01DX001 (ip), vehicle: saline with Tween-80
[8] = endpoint: mean survival time, dose: 100.0 mg/kg/injection, schedule: Q01DX009 (ip), vehicle: other
[9] = endpoint: mean survival time, dose: 200.0 mg/kg/injection, schedule: Q01DX009 (ip), vehicle: other
[10] = endpoint: mean survival time, dose: 100.0 mg/kg/injection, schedule: Q01DX001 (ip), vehicle: saline
[11] = endpoint: mean survival time, dose: 200.0 mg/kg/injection, schedule: Q01DX001 (ip), vehicle: saline
[12] = endpoint: mean survival time, dose: 100.0 mg/kg/injection, schedule: Q04DX003 (ip), vehicle: saline with Tween-80
[13] = endpoint: mean survival time, dose: 200.0 mg/kg/injection, schedule: Q04DX003 (ip), vehicle: saline with Tween-80
[14] = endpoint: mean survival time, dose: 400.0 mg/kg/injection, schedule: Q04DX003 (ip), vehicle: saline with Tween-80

Measured: T/C

CO[C@@]12[C@@H]3N[C@@H]3CN1C1=C(C(=O)C(NCCc3ccccn3)=C(C)C1=O)[C@@H]2COC(N)=O
active: endpoint: median survival time, dose: 3.13 mg/kg/injection, schedule: Q01DX005 (ip), vehicle: saline with Tween-80 153 % of control | endpoint: median survival time, dose: 6.25 mg/kg/injection, schedule: Q01DX005 (ip), vehicle: saline with Tween-80 164 % of control | endpoint: median survival time, dose: 12.5 mg/kg/injection, schedule: Q01DX005 (ip), vehicle: saline with Tween-80 166 % of control | endpoint: median survival time, dose: 18.0 mg/kg/injection, schedule: Q01DX001 (ip), vehicle: saline with Tween-80 153 % of control | endpoint: median survival time, dose: 30.0 mg/kg/injection, schedule: Q01DX001 (ip), vehicle: saline with Tween-80 160 % of control | endpoint: median survival time, dose: 50.0 mg/kg/injection, schedule: Q01DX001 (ip), vehicle: saline with Tween-80 188 % of control and 200 % of control | endpoint: median survival time, dose: 83.32 mg/kg/injection, schedule: Q01DX001 (ip), vehicle: saline with Tween-80 156 % of control | endpoint: median survival time, dose: 25000.0 micrograms/kg/injection, schedule: Q01DX001 (ip), vehicle: saline with Tween-80 153 % of control | endpoint: median survival time, dose: 50000.0 micrograms/kg/injection, schedule: Q01DX001 (ip), vehicle: saline with Tween-80 322 % of control
inactive: endpoint: median survival time, dose: 3.12 mg/kg/injection, schedule: Q01DX001 (ip), vehicle: saline with Tween-80 93 % of control | endpoint: median survival time, dose: 6.25 mg/kg/injection, schedule: Q01DX001 (ip), vehicle: saline with Tween-80 111 % of control | endpoint: median survival time, dose: 12.5 mg/kg/injection, schedule: Q01DX001 (ip), vehicle: saline with Tween-80 120 % of control | endpoint: median survival time, dose: 25.0 mg/kg/injection, schedule: Q01DX005 (ip), vehicle: saline with Tween-80 89 % of control | endpoint: median survival time, dose: 3.12 micrograms/kg/injection, schedule: Q01DX001 (ip), vehicle: saline with Tween-80 97 % of control | endpoint: median survival time, dose: 6.25 micrograms/kg/injection, schedule: Q01DX001 (ip), vehicle: saline with Tween-80 102 % of control | endpoint: median survival time, dose: 12.5 micrograms/kg/injection, schedule: Q01DX001 (ip), vehicle: saline with Tween-80 108 % of control | endpoint: median survival time, dose: 25.0 micrograms/kg/injection, schedule: Q01DX001 (ip), vehicle: saline with Tween-80 97 % of control | endpoint: median survival time, dose: 50.0 micrograms/kg/injection, schedule: Q01DX001 (ip), vehicle: saline with Tween-80 97 % of control | endpoint: median survival time, dose: 3125.0 micrograms/kg/injection, schedule: Q01DX001 (ip), vehicle: saline with Tween-80 118 % of control

[O-][n+]1c(CN2CCCCC2)nc2cccc3c2c1-c1ccccc1-3
inactive: [1] 104 % of control | [2] 103 % of control | [3] 103 % of control | [4] 113 % of control | [5] 109 % of control

CC(=O)OC1CCC2(C)C3=CCC4(C)C(C(C)/C=C\C(C)C(C)C)CCC4C34C=CC2(C1)C1C(=O)OC(=O)C14 (configuration not stated)
inactive: [6] 97 % of control | [7] 91 % of control | endpoint: mean survival time, dose: 100.0 mg/kg/injection, schedule: Q04DX002 (ip), vehicle: saline with Tween-80 86 % of control | endpoint: mean survival time, dose: 200.0 mg/kg/injection, schedule: Q01DX001 (ip), vehicle: saline with Tween-80 95 % of control

CC(=O)OCC1OC(OC(C)=O)C(NC(=O)NCCI)C(OC(C)=O)C1OC(C)=O (configuration not stated)
inactive: endpoint: mean survival time, dose: 12.5 mg/kg/injection, schedule: Q01DX009 (ip), vehicle: other 93 % of control | endpoint: mean survival time, dose: 25.0 mg/kg/injection, schedule: Q01DX009 (ip), vehicle: other 95 % of control | endpoint: mean survival time, dose: 50.0 mg/kg/injection, schedule: Q01DX009 (ip), vehicle: other 92 % of control | [8] 88 % of control | [9] 98 % of control

O=C(O)C1C2CC3C(C2)C31 (configuration not stated)
inactive: [8] 96 % of control | [9] 104 % of control

C=CCSc1cccc(C)c1
inactive: [10] 96 % of control | [11] 97 % of control

Nc1nc(N)c2c(n1)CCCC2
inactive: [1] 93 % of control | [2] 88 % of control

CC1c2ccccc2CC(CCN(C)C)c2ccccc21 (configuration not stated)
inactive: endpoint: median survival time, dose: 6.25 mg/kg/injection, schedule: Q01DX009 (ip), vehicle: saline with Tween-80 94 % of control | endpoint: median survival time, dose: 12.5 mg/kg/injection, schedule: Q01DX009 (ip), vehicle: saline with Tween-80 113 % of control | endpoint: median survival time, dose: 25.0 mg/kg/injection, schedule: Q01DX009 (ip), vehicle: saline with Tween-80 108 % of control | endpoint: median survival time, dose: 50.0 mg/kg/injection, schedule: Q01DX009 (ip), vehicle: saline with Tween-80 112 % of control

NNC1CC2CCC1C2 (configuration not stated)
inactive: endpoint: mean survival time, dose: 12.5 mg/kg/injection, schedule: Q01DX009 (ip), vehicle: saline 95 % of control | endpoint: mean survival time, dose: 25.0 mg/kg/injection, schedule: Q01DX009 (ip), vehicle: saline 93 % of control

CCOP(=O)(Cc1cccc2ccccc12)OCC
inactive: endpoint: mean survival time, dose: 100.0 mg/kg/injection, schedule: Q01DX001 (ip), vehicle: Klucel (hydroxypropylcellulose) (HPC) 103 % of control | endpoint: mean survival time, dose: 200.0 mg/kg/injection, schedule: Q01DX001 (ip), vehicle: Klucel (hydroxypropylcellulose) (HPC) 96 % of control | endpoint: mean survival time, dose: 400.0 mg/kg/injection, schedule: Q01DX001 (ip), vehicle: Klucel (hydroxypropylcellulose) (HPC) 100 % of control

Nc1cc2n[nH]nc2c(=O)[nH]1
inactive: endpoint: median survival time, dose: 50.0 mg/kg/injection, schedule: Q01DX005 (ip), vehicle: saline with Tween-80 107 % of control | endpoint: median survival time, dose: 100.0 mg/kg/injection, schedule: Q01DX005 (ip), vehicle: saline with Tween-80 101 % of control | endpoint: median survival time, dose: 200.0 mg/kg/injection, schedule: Q01DX005 (ip), vehicle: saline with Tween-80 100 % of control

CN(C)CCNc1ccc(NCCN(C)C)c2c1C(=O)c1ccccc1C2=O
inactive: endpoint: mean survival time, dose: 3.75 mg/kg/injection, schedule: Q01DX009 (ip), vehicle: saline with Tween-80 104 % of control | endpoint: mean survival time, dose: 7.5 mg/kg/injection, schedule: Q01DX009 (ip), vehicle: saline with Tween-80 107 % of control | endpoint: mean survival time, dose: 15.0 mg/kg/injection, schedule: Q01DX009 (ip), vehicle: saline with Tween-80 117 % of control | endpoint: mean survival time, dose: 60.0 mg/kg/injection, schedule: Q01DX009 (ip), vehicle: saline with Tween-80 100 % of control
active: endpoint: mean survival time, dose: 30.0 mg/kg/injection, schedule: Q01DX009 (ip), vehicle: saline with Tween-80 150 % of control

CC(C#N)(Nc1ccccc1)c1ccccn1 (configuration not stated)
inactive: [12] 101 % of control | [13] 93 % of control | [14] 89 % of control

CC/C(=C(/CC)c1ccc(O)cc1)c1ccc(O)cc1
inactive: endpoint: median survival time, dose: 12.5 mg/kg/injection, schedule: Q01DX009 (sc), vehicle: steriod suspending solution 114 % of control and 105 % of control | endpoint: median survival time, dose: 25.0 mg/kg/injection, schedule: Q01DX009 (sc), vehicle: steriod suspending solution 114 % of control and 100 % of control | endpoint: median survival time, dose: 50.0 mg/kg/injection, schedule: Q01DX009 (sc), vehicle: steriod suspending solution 114 % of control and 105 % of control | endpoint: median survival time, dose: 100.0 mg/kg/injection, schedule: Q01DX009 (sc), vehicle: steriod suspending solution 100 % of control

CC(=O)/C(=C\c1ccccc1)CNC(C)(C)C
inactive: endpoint: mean survival time, dose: 25.0 mg/kg/injection, schedule: Q01DX001 (ip), vehicle: saline with Tween-80 92 % of control | [6] 100 % of control | [7] 100 % of control

CC1(C)SCNC1C(=O)O (configuration not stated)
inactive: [10] 96 % of control | [11] 100 % of control | endpoint: mean survival time, dose: 400.0 mg/kg/injection, schedule: Q01DX001 (ip), vehicle: saline 94 % of control

OC1C2COC(O2)C(O)C1O (configuration not stated)
inactive: endpoint: mean survival time, dose: 100.0 mg/kg/injection, schedule: Q01DX009 (ip), vehicle: saline 98 % of control | endpoint: mean survival time, dose: 200.0 mg/kg/injection, schedule: Q01DX009 (ip), vehicle: saline 101 % of control | endpoint: mean survival time, dose: 400.0 mg/kg/injection, schedule: Q01DX009 (ip), vehicle: saline 98 % of control

Brc1ccc2c(c1)C(Br)c1ccccc1-2 (configuration not stated)
inactive: [3] 105 % of control | [4] 103 % of control | [12] 101 % of control | [5] 100 % of control | [13] 101 % of control

CC(=O)Nc1cc(N)cc(-c2ccccc2)c1
inactive: endpoint: mean survival time, dose: 50.0 mg/kg/injection, schedule: Q04DX002 (ip), vehicle: saline with Tween-80 96 % of control and 104 % of control | [12] 94 % of control and 97 % of control | [13] 90 % of control and 94 % of control | [14] 94 % of control and 100 % of control

S=c1[nH]nc2n1NC(c1ccccc1)=NN2
inactive: [4] 104 % of control | [12] 91 % of control | [5] 112 % of control | [13] 96 % of control | endpoint: mean survival time, dose: 400.0 mg/kg/injection, schedule: Q01DX009 (ip), vehicle: saline with Tween-80 106 % of control | [14] 101 % of control
